The subject of experiment [1] is histone-induced Ca2+ flux by HMEC-1. Kind of experiment: Calcium flux in endothelial cells (Indo-1 flow cytometry). The format is cell-based, human. The note with it: compounds 100 μg ml^−1, histones 100 μg ml^−1, FIG. 5c. As for the experimental part: Calcium flux studies in endothelial cells. HMEC-1 (2×10^7 ml^−1) in RPMI-1640 medium were incubated with Indo-1 AM (5 μM) (ThermoFisher) (Tellam, R. L. & Parish, C. R. The effect of sulfated polysaccharides on the free intracellular calcium ion concentration of lymphocytes. Biochim Biophys Acta 930, 55-64 (1987); and Weston, S. A., Tellam, R. L. & Parish, C. R. Dextran sulfate induces changes in the free intracellular calcium ion concentration of a subpopulation of immature thymocytes. Immunol Cell Biol 69, 369-376 (1991)) at 37° C. for 60 min. After 3 washes with RPMI-1640 medium supplemented with 5% FCS the cells were resuspended at 4×10^6 ml^−1 in ice-chilled HEPES-buffered saline (NaCl 8 g l^−1, KCl 0.4 g l^−1, CaCl2 0.2 g l^−1, MgCl2·6H2O 0.2 g l^−1, D-glucose 1.8 g l^−1, pH 7.4) supplemented with 10 mM HEPES. […] Intracellular Ca^2+ flux was monitored using flow cytometry. […] After the exclusion of cellular debris and clumped cells (on the basis of FSC/SSC light scattering) the basal Ca^2+ level was monitored for 2 min before histone addition in the presence/absence of novel compounds. Ca^2+ levels were measured at 1, 3 and 9 min post-histone addition with a constant flow rate (˜300 events/sec). Ca^2+ flux was determined as an increase in the ratio of geometric mean fluorescence intensity (GMFI) of Ca^2+-bound over Ca^2+-unbound Indo-1.

Experiment [2] relates to histones. Kind of experiment: Lipid bilayer assay (artificial lipid bilayers exposed to histones). To be noted: for Average bilayer lifetime: histones alone 5.7±1.2, control 46±4; for Incidence of rapid bilayer rupture: within 0.3-0.5 min of histone addition, histones alone 28%. As for the experimental part: Lipid bilayer assays. Artificial lipid bilayers, prepared as previously described (Rebbeck, R. T. et al. The beta(1a) subunit of the skeletal DHPR binds to skeletal RyR1 and activates the channel via its 35-residue C-terminal tail. Biophys J 100, 922-930 (2011).), separated symmetrical 150 mM or 250 mM KCl (pH ˜5.5) solutions. Histones (1 μM, 15.2 μg ml^−1) were added to bilayers alone or after 0.5-3 h incubation with 10 μM CBS (3.5 μg ml^−1) or 10 μM MTS (5.1 μg ml^−1) at ˜20° C. Current was recorded continuously after histone addition until the bilayers broke or the experiment was terminated.

In experiment [3] the test system is histone-induced platelet aggregation. Nature of the experiment: Histone-induced aggregation of isolated platelets. It counts as cell-based, human. To be noted: FIG. 4b; for Inhibition of histone-induced platelet aggregation: histones 150 μg/mL, isolated platelets. As for the experimental part:
In vitro platelet aggregation and degranulation assays. For aggregation studies platelets were isolated from human whole blood collected into Na-citrate vacutainers through 2-step centrifugation at room temperature (200×g for 20 min then the platelet-rich plasma 800×g for 15 min), the platelet pellet resuspended in Hank's balanced salt solution containing calcium and magnesium and histones added and incubated in the presence/absence of compounds at the concentrations of each as indicated. Samples were assessed for degree of platelet aggregation after 15 min exposure to histones by flow cytometry using the characteristic log FSC versus log SSC identification of platelets, with increases in the geometric mean of log FSC indicative of platelet aggregation.

Experiment [4] deals with histones. Nature of the experiment: Murine histone-induced deep vein thrombosis (DVT) model. To be noted: mice, histones 10 mg kg^−1 i.v., compound 50 mg kg^−1 i.v., 48 h, FIG. 6c. The format is in vivo. As for the experimental part: Murine deep vein thrombosis (DVT) model. The procedure used is largely as previously described (Brill, A. et al. Neutrophil extracellular traps promote deep vein thrombosis in mice. J Thromb Haemost 10, 136-144 (2012)). […] The peritoneum and skin were closed following which all mice received an i.v. injection of histones via the tail vein (10 mg kg^−1) or an equivalent volume of saline followed 5 min later by an i.v. injection of test compounds (50 mg kg^−1) or saline. Mice were monitored for 48 h after which they were re-anesthetized, re-opened and any thrombi that had developed distal to the IVC stenosis were removed for analysis. Sham operated control animals received laparotomy and 90% ligation of the IVC, however the ligation was removed immediately after occlusion of the IVC.

A short description of experiment [5]: Rat cardiac ischemia reperfusion injury model. It counts as in vivo. The note with it: rats, 30 mg kg^−1 into left ventricle 5 min prior to reperfusion, FIG. 7c. An excerpt:
Rat cardiac ischemia reperfusion injury model. The method used is based on a combination of previously published procedures (Takada, Y., Hashimoto, M., Kasahara, J., Aihara, K. & Fukunaga, K. Cytoprotective effect of sodium orthovanadate on ischemia/reperfusion-induced injury in the rat heart involves Akt activation and inhibition of fodrin breakdown and apoptosis. J Pharmacol Exp Ther 311, 1249-1255 (2004); and Hale, S. L., Dae, M. W. & Kloner, R. A. Hypothermia during reperfusion limits ‘no-reflow’ injury in a rabbit model of acute myocardial infarction. Cardiovasc Res 59, 715-722 (2003)). Male Wistar rats were anaesthetized with isofluorane, intubated via tracheostomy and ventilated with a tidal volume of 1 ml 150 g^−1 and a respiratory rate of 65 breaths min^−1. Supplemental oxygen was delivered at a FiO2 of ˜30%. […]
At the conclusion of reperfusion (30 min), Thioflavin S (1 ml 200 g^−1 of body weight) was slowly injected into the lumen of the left ventricle, to define the territory of microvascular obstruction (MVO) within the ischemic zone (IZ). The IZ territory was determined by the re-occlusion of the atraumatic snare and infusion of blue microspheres into the left ventricle (Unisperse Blue, BASF), distributed within solutions via ultrasonication using a CD-6800 (Unisonics) sonicator. […] Planimetry (Image J, Freeware) was used to quantify the areas of the IZ, MVO and necrosis.

Setting [6] is: histones 1 μM with 10 μM compound.

Regarding `O=S(=O)(O)OC[C@H]1O[C@@H](O[C@H]2[C@H](OS(=O)(=O)O)[C@@H](OS(=O)(=O)O)C(OS(=O)(=O)O)O[C@@H]2COS(=O)(=O)O)[C@H](OS(=O)(=O)O)[C@@H](OS(=O)(=O)O)[C@@H]1OS(=O)(=O)O` (some centres unmarked) [CBS, cellobiose per-O-sulfate], in experiment [1], the “Effect on histone-induced Ca2+ response” value is listed as “substantially inhibited”. In experiment [2] (setting [6]), this molecule returned an Average bilayer lifetime of 18 ± 4 min. For the same molecule, the “Incidence of rapid bilayer rupture” value in experiment [2] was found to be 5.8%. In addition, in experiment [3], the “Inhibition of histone-induced platelet aggregation” value is “completely inhibited”. Also, the “Inhibition of histone-mediated DVT” value in experiment [4] is reported as “almost totally inhibited”. Moreover, the “Reduction of area of microvascular obstruction and myocardial necrosis in the ischemic zone” value in experiment [5] amounted to 50%.

For the molecule `O=S(=O)(O)OC[C@H]1O[C@H](O[C@H]2[C@H](OS(=O)(=O)O)[C@@H](OS(=O)(=O)O)C(OS(=O)(=O)O)O[C@@H]2COS(=O)(=O)O)[C@H](OS(=O)(=O)O)[C@@H](OS(=O)(=O)O)[C@@H]1O[C@H]1O[C@H](COS(=O)(=O)O)[C@@H](OS(=O)(=O)O)[C@H](OS(=O)(=O)O)[C@H]1OS(=O)(=O)O` (some centres unmarked) [MTS, maltotriose per-O-sulfate], in experiment [1], the “Effect on histone-induced Ca2+ response” value was “totally ablated”. In experiment [2] (setting [6]), the “Bilayer lifetime compared with control lifetimes” value is on record as “not significantly different from the control lifetimes” and the Average bilayer lifetime came out at 36 ± 5 min. Besides, the “Incidence of rapid bilayer rupture” value in experiment [2] amounted to 2.5%. In experiment [3], the “Relative activity in inhibiting histone-induced platelet aggregation” value was “most active” and the “Inhibition of histone-induced platelet aggregation” value was “completely inhibited”. Moreover, the “Inhibition of histone-mediated DVT” value in experiment [4] is “almost totally inhibited”. In addition, the “Reduction of area of microvascular obstruction and myocardial necrosis in the ischemic zone” value in experiment [5] was “totally ineffectual”.

The record behind these values is US12239650B2, “Compounds for treating and preventing net associated complications” (The Australian National University, priority 2019, dated 2025).
